According to PubChem BioAssay (NCI):
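Interpolation was linear, between the two tested concentrations surrounding the appropriate level; five concentrations were tested over 48 hours in 96-well plates. GI50 = concentration required for 50% inhibition of growth. TGI: total growth inhibition.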

Experiments:
Test in all cases: NCI tumour cell line growth inhibition, 48 h
PC-3 prostate = test system: PC-3 prostate
NCI-H226 lung = test system: NCI-H226 lung
SK-OV-3 ovarian = test system: SK-OV-3 ovarian
NCI-H23 lung = test system: NCI-H23 lung
KM12 colon = test system: KM12 colon
SK-MEL-5 melanoma = test system: SK-MEL-5 melanoma
SR leukemia = test system: SR leukemia
DU-145 prostate = test system: DU-145 prostate
HOP-62 NSCLC = test system: HOP-62 NSCLC
SF-539 CNS = test system: SF-539 CNS

SMILES | GI50 (PC-3 prostate) [µM] | TGI (PC-3 prostate) [µM] | GI50 (NCI-H226 lung) [µM] | TGI (NCI-H226 lung) [µM] | GI50 (SK-OV-3 ovarian) [µM] | TGI (SK-OV-3 ovarian) [µM] | GI50 (NCI-H23 lung) [µM] | TGI (NCI-H23 lung) [µM] | GI50 (KM12 colon) [µM] | TGI (KM12 colon) [µM] | GI50 (SK-MEL-5 melanoma) [µM] | TGI (SK-MEL-5 melanoma) [µM] | GI50 (SR leukemia) [µM] | TGI (SR leukemia) [µM] | GI50 (DU-145 prostate) [µM] | TGI (DU-145 prostate) [µM] | GI50 (HOP-62 NSCLC) [µM] | TGI (HOP-62 NSCLC) [µM] | GI50 (SF-539 CNS) [µM] | TGI (SF-539 CNS) [µM]
CN(C)CC(=O)N1CCC(c2ccc(NC(=O)c3ncc(C#N)[nH]3)c(C3=CCCCC3)c2)CC1 | 8.38 | 25.5 | 11.3 | 24.2 | 5.33 | 17.4 | 5.51 | 19.5 | 0.354 | 13.8 | 3.5 | 13.4 | 2.58 | 6.52 | 12 | 24.6 | 7.07 | 19.4 | 3.5 | 15
O=C(CSc1nc2ccc([N+](=O)[O-])cc2[nH]1)Nc1ccc(F)c(Cl)c1 | 2.57 | 11.6 | 2.15 | 9.57 | 1.42 | 4.79 | 2.05 | 8.79 | 2.83 | 12.2 | 1.22 | 3.03 | 3 | > 37.3 | 3.24 | 13.4 | 2.46 | 9.89 | 3 | 11.4
COC1(C(=O)N2Cc3nc(Cl)nc(N[C@H](C)c4cc(N)cc(C(F)(F)F)c4)c3C2)CCOCC1 | 21.3 | > 91.8 | 18.2 | 72.2 | 17.7 | 58.5 | 19.7 | 72.4 | 13.6 | 54.3 | 14.8 | 28.1 | 2.92 | 48.8 | 31.7 | > 100 | 15.2 | 36 | 15.2 | 29.8
Cc1ccc2c(C(C[N+](=O)[O-])c3cccs3)c(-c3ccccc3)[nH]c2c1 (stereo not given) | 2.46 | 16.1 | 3.38 | 8.61 | 3.44 | 19.7 | 1.88 | 8.18 | 1.54 | 7.25 | 1.07 | 4.21 | 1.43 | > 33.3 | 3.7 | 16.9 | 2.25 | 11.7 | 1.54 | 6.21
CCOc1ccc(S(=O)(=O)/N=C2\C=C(SCC(=O)O)C(=O)c3ccccc32)cc1 | 2.92 | 13.1 | 21.7 | 50.6 | 15.2 | 29.7 | 2.81 | 14.2 | 2.8 | 10.3 | 1.72 | 3.1 | 0.538 | 5.26 | 2.04 | 5.86 | 20.7 | 44.8 | 2.49 | 5.39
CC1(C)N=C(N)N=C(N)N1c1ccc(CCCCc2ccc(S(=O)(=O)F)cc2)cc1 | 0.094 | 23.5 | 1.99 | 33.2 | 15.5 | > 85 | 2.6 | 24.8 | 0.601 | 13 | 0.574 | 13.4 | 0.58 | 25.8 | 0.833 | 28.2 | 3.86 | 20.1 | 0.458 | 11.6
CC(C)(C)OC(=O)NC(Cc1ccccc1)C(=O)OCN1C(=O)C2C3C=CC(C2C1=O)C1C2C(=O)N(COC(=O)C(Cc4ccccc4)NC(=O)OC(C)(C)C)C(=O)C2C31 (stereo not given) |  | > 100 |  | > 96.4 |  | > 95.5 |  | > 100 |  | > 100 |  | > 74.8 |  | 4.06 |  | > 100 |  | > 100 |  | > 100
Nc1n[nH]c2ccc([C@@H]3Nc4ccc5[nH]ncc5c4[C@H]4[C@H]5CCC(C5)[C@H]43)cc12 | 0.397 | 23 | 0.331 | 2.88 | 0.823 | > 80.1 | 0.654 | > 46 | 0.406 | 10.8 | 0.403 | 2.6 | 0.28 | 20.2 | 0.445 | > 28.3 | 0.597 | > 74 | 0.238 | 0.673
Brc1cccc(-c2cc(-c3ccc4c(c3)OCCO4)[nH]n2)c1 | 1.44 | 41.4 | 12.1 | 60.9 | 1.69 | 43.6 | 3.46 | 53.6 | 0.669 | 25.5 | 1.17 | 30.3 | 0.581 | 136 | 1.98 | 27 | 1.38 | 41.3 | 1.8 | 8.48
